According to paper PMC6425950 (Bioorganic & medicinal chemistry, 2019):

System: HCV genotype 1b RNA replication in Huh-7 cells (subgenomic HCV replicon)
Assay: HCV subgenomic replicon assay, inhibition of HCV RNA replication
Type: cell-based, Hepatitis C virus
Settings: for anti-HCV activity (in words): HCV replicon, statement in conclusion; for EC90: Hepatitis C virus, GETYPE1B, Huh-7, read-out: Anti-HCV activity EC90; for anti-HCV activity: none at concentration up to: HCV genotype 1b replicon, Huh-7 cells

SMILES	anti-HCV activity (in words)	EC90	anti-HCV activity: none at concentration up to
CC(C)OC(=O)[C@H](C)NP(=O)(OC[C@H]1O[C@@H](n2ccc(=O)[nH]c2=O)[C@](F)(Cl)[C@@H]1O)Oc1ccccc1 (stereo partly drawn) [Compound 19, Isopropyl ((((2R,3R,4R,5R)-4-chloro-5-(2,4-dioxo-3,4-dihydropyrimidin-1(2H)-yl)-4-fluoro-3-hydroxytetrahydrofuran-2-yl)methoxy)(phenoxy)phosphoryl)-L-alaninate]	low to sub-micromolar range		
CC(C)OC(=O)[C@H](C)NP(=O)(OC[C@H]1O[C@@H](n2ccc(=O)[nH]c2=O)[C@](F)(Br)[C@@H]1O)Oc1ccccc1 (stereo partly drawn) [Compound 20, Isopropyl ((((2R,3R,4R,5R)-4-bromo-5-(2,4-dioxo-3,4-dihydropyrimidin-1(2H)-yl)-4-fluoro-3-hydroxytetrahydrofuran-2-yl)methoxy)(phenoxy)phosphoryl)-L-alaninate]	low to sub-micromolar range		
Nc1ccn([C@@H]2O[C@H](CO)[C@@H](O)[C@@]2(F)Cl)c(=O)n1 [Compound 26, 4-Amino-1-((2R,3R,4R,5R)-3-chloro-3-fluoro-4-hydroxy-5-(hydroxymethyl)tetrahydrofuran-2-yl)pyrimidin-2(1H)-one]		> 10 µM	
Nc1ccn([C@@H]2O[C@H](CO)[C@@H](O)[C@@]2(F)Br)c(=O)n1 [Compound 27, 4-Amino-1-((2R,3R,4R, 5R)-3-bromo-3-fluoro-4-hydroxy-5-(hydroxymethyl)tetrahydrofuran-2-yl)pyrimidin-2(lH)-one]	low to sub-micromolar range		
CC(C)OC(=O)[C@H](C)NP(=O)(OC[C@H]1O[C@@H](n2ccc(N)nc2=O)[C@](F)(Br)[C@@H]1O)Oc1ccccc1 (stereo partly drawn) [Compound 32, Isopropyl ((((2R,3R,4R,5R)-5-(4-amino-2-oxopyrimidin-1(2H)-yl)-4-bromo-4-fluoro-3-hydroxytetrahydrofuran-2-yl)methoxy)(phenoxy)phosphoryl)-L-alaninate]	low to sub-micromolar range		
CC(C)OC(=O)[C@H](C)NP(=O)(OC[C@H]1O[C@@H](n2ccc(N)nc2=O)[C@](F)(Cl)[C@@H]1O)Oc1ccccc1 (stereo partly drawn) [Compound 35, Isopropyl ((((2R,3R,4R,5R)-5-(4-amino-2-oxopyrimidin-1(2H)-yl)-4-chloro-4-fluoro-3-hydroxytetrahydrofuran-2-yl)methoxy) (phenoxy)phosphoryl)-L-alaninate]	low to sub-micromolar range		
Nc1ncnc2c1ncn2[C@@H]1O[C@H](CO)[C@@H](O)[C@@]1(F)Cl [Compound 40, (2R, 3R, 4R, 5R)-5-(6-Amino-9H-purin-9-yl)-4-chloro-4-fluoro-2-(hydroxymethyl)tetrahydrofuran-3-ol]		> 10 µM	
Nc1ncnc2c1ncn2[C@@H]1O[C@H](CO)[C@@H](O)[C@@]1(F)Br [Compound 41, (2R, 3R, 4R, 5R)-5-(6-Amino-9H-purin-9-yl)-4-bromo-4-fluoro-2-(hydroxymethyl)tetrahydrofuran-3-ol]		> 10 µM	
CC(C)OC(=O)[C@H](C)NP(=O)(OC[C@H]1O[C@@H](n2cnc3c(N)ncnc32)[C@](F)(Cl)[C@@H]1O)Oc1ccccc1 (stereo partly drawn) [Compound 42, Isopropyl ((((2R,3R,4R,5R)-5-(6-amino-9H-purin-9-yl)-4-chloro-4-fluoro-3-hydroxytetrahydrofuran-2-yl)methoxy) (phenoxy)phosphoryl)-L-alaninate]	low to sub-micromolar range		
CC(C)OC(=O)[C@H](C)NP(=O)(OC[C@H]1O[C@@H](n2cnc3c(N)ncnc32)[C@](F)(Br)[C@@H]1O)Oc1ccccc1 (stereo partly drawn) [Compound 43, Isopropyl ((((2R,3R,4R,5R)-5-(6-amino-9H-purin-9-yl)-4-bromo-4-fluoro-3-hydroxytetrahydrofuran-2-yl)methoxy)(phenoxy)phosphoryl)-L-alaninate]		> 10 µM	
Nc1nc2c(ncn2[C@@H]2O[C@H](CO)[C@@H](O)[C@@]2(F)Cl)c(=O)[nH]1 [Compound 48, 2-Amino-9-((2R,3R,4R,5R)-3-chloro-3-fluoro-4-hydroxy-5-(hydroxymethyl)tetrahydrofuran-2-yl)-1,9-dihydro-6H-purin-6-one]			> 10 µM
Nc1nc2c(ncn2[C@@H]2O[C@H](CO)[C@@H](O)[C@@]2(F)Br)c(=O)[nH]1 [Compound 49, 2-amino-9-((2R,3R,4R,5R)-3-bromo-3-fluoro-4-hydroxy-5-(hydroxymethyl)tetrahydrofuran-2-yl)-1,9-dihydro-6H-purin-6-one]		> 10 µM	> 10 µM
CC(C)OC(=O)[C@H](C)NP(=O)(OC[C@H]1O[C@@H](n2cnc3c(=O)[nH]c(N)nc32)[C@](F)(Cl)[C@@H]1O)Oc1ccccc1 (stereo partly drawn) [Compound 50, Isopropyl ((((2R,3R,4R,5R)-5-(2-amino-6-oxo-1,6-dihydro-9H-purin-9-yl)-4-chloro-4-fluoro-3-hydroxytetrahydrofuran-2-yl)methoxy)(phenoxy)phosphoryl)-L-alaninate]		> 10 µM	> 10 µM
CC(C)OC(=O)[C@H](C)N[P@](=O)(OC[C@H]1O[C@@H](n2cnc3c(=O)[nH]c(N)nc32)[C@](F)(Br)[C@@H]1O)Oc1ccccc1 [Compound 51, Isopropyl ((((2R,3R,4R,5R)-5-(2-amino-6-oxo-1,6-dihydro-9H-purin-9-yl)-4-bromo-4-fluoro-3-hydroxytetrahydrofuran-2-yl)methoxy)(phenoxy)phosphoryl)-L-alaninate]			> 10 µM
